Reference: patent US20250375437A1, “METHODS FOR IMPROVING COGNITIVE FUNCTION” (priority 2024, published 2025)

Assays:
[1] = Drug concentration in the plasma of the patients after the end of the treatment; settings: human, in vivo, after 12 weeks of 1 to 30 mg dextromethorphan per day
Procedure: Both groups were treated with drug. The course of treatment for the group taking dextromethorphan and sodium valproate (BDDM group) was 1 to 30 mg of dextromethorphan and 500 to 2500 mg of sodium valproate per day for 12 weeks. The course of treatment for the group taking sodium valproate and placebo (BDPl group) was 500-2500 mg of sodium valproate and placebo per day for 12 weeks. After the end of the treatment, the concentrations of dextromethorphan in the plasma of the patients were about 10-50 ng/ml (0.05-0.2 μM), and the concentrations of sodium valproate in the plasma were about 50-100 μg/dl.

[2] = system: patients with bipolar II disorder; test: Continuous Performance Test (Conner's CPT II), sustained attention; assay type: in vivo, human; settings: 12 weeks versus baseline, result in words
Text: The present invention recruited patients diagnosed with bipolar II disorder (BD-II). The patients were diagnosed by psychiatrists using the improved Chinese version of the Schedule of Affective Disorder and Schizophrenia-Life Time (SADS-L) with good inter-rater reliability and the Diagnostic and Statistical Manual of Mental Disorders, Fourth Edition, Text Revision (DSM-IV-TR) to confirm that the patient meets the integration points of bipolar II disorder in the DSM-IV-TR.
The purpose of the test of the present invention was to test whether dextromethorphan (DM) and sodium valproate (trade name: Depakine) could improve the cognitive function of patients. Therefore, the patients with bipolar II disorder in the present invention were divided into two groups: one group was the patients taking dextromethorphan and sodium valproate together (BDDM), and the other group was the patients taking sodium valproate and placebo (BDPl). Before the patients of the two group took the drug, the present invention first used the following evaluation test to perform a basic evaluation of the patients of the two groups.
The present invention used the computer version of Conner's CPT II 20 which was used to detect the sustained attention of the patients. In the reliability of Conner's CPT II, the split-half reliability ranged from 0.66 to 0.95, and the retest reliability after three months was […]. […]

Compound: COc1ccc2c(c1)[C@]13CCCC[C@@H]1[C@H](C2)N(C)CC3 [dextromethorphan]
- concentration at 12 weeks [1]: 10 to 50 ng/mL
- concentration at 12 weeks ([1]; value in brackets): 50 to 200 nM
- sustained attention (scores of CPT) after the end of the course of treatment [2]: improvement in sustained attention was due to the efficacy of dextromethorphan
